Measured values as given in ChEMBL document CHEMBL1141009, “Synthesis of BODIPY-labeled alkylphosphocholines with leishmanicidal activity, as fluorescent analogues of miltefosine” (2008).

System: Leishmania donovani
Assay: Antileishmanial activity against Leishmania donovani promastigotes
Type: functional
Conditions: read-out: LD50 (the source's name)

| Compound | LC50 [µM] |
| --- | --- |
| CCC1=C(C)C2=Cc3c(C)c(CCCCCCCCCCCOP(=O)([O-])OCC[N+](C)(C)C)c(C)n3[B-](F)(F)[N+]2=C1C | 4.3 |
| CC1=CC(C)=[N+]2C1=Cc1c(C)c(CCCCCCCCCCCOP(=O)([O-])OCC[N+](C)(C)C)c(C)n1[B-]2(F)F | 5.2 |
| CCCCCCCCCCCCCCCCOP(=O)([O-])OCC[N+](C)(C)C [MILTEFOSINE] | 6.5 |
